Experiments:
Format in all cases: cell-based
PPARδ = molecular target: T1, PPARδ (Homo sapiens, UniProt Q03181); assay: PPAR-delta EC50, functional cell (transactivation) assay
T1 construct: expressed in transfected cells; host or cells: CV-1 cells
T1 sequence (Q03181 211-439 limits assumed): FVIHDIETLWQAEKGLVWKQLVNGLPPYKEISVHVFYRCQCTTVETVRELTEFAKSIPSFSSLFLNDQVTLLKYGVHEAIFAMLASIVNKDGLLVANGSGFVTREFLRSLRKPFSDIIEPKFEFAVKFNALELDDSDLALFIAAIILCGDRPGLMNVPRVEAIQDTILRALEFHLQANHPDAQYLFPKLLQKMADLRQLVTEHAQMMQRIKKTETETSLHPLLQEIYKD
Text: (§1) The following transfection assay methods are provided by way of example only. Compounds may be screened for functional potency in transient transfection assays in CV-1 cells for their ability to activate the PPAR subtypes (transactivation assay). A previously established chimeric receptor system was utilized to allow comparison of the relative transcriptional activity of the receptor subtypes on the same target gene and to prevent endogenous receptor activation from complicating the interpretation of results. See, for example, Lehmann, J. M.; Moore, L. B.; Smith-Oliver, T. A; Wilkinson, W. O.; Willson, T. M.; Kliewer, S. A., An antidiabetic thiazolidinedione is a high affinity ligand for peroxisome proliferator-activated receptor γ(PPARγ), J. Biol. Chem., 1995, 270, 12953-6. The ligand binding domains for murine and human PPAR-alpha, PPAR-gamma, and PPAR-delta are each fused to the yeast transcription factor GAL4 DNA binding domain. CV-1 cells were transiently transfected with expression vectors for the respective PPAR chimera along with a reporter construct containing five copies of the GAL4 DNA binding site driving expression of secreted placental alkaline phosphatase (SPAP) and p-galactosidase. After 16 h, the medium is exchanged to DME medium supplemented with 10% delipidated fetal calf serum and the test compound at the appropriate concentration. After an additional 24 h, cell extracts are prepared and assayed for alkaline phosphatase and pgalactosidase activity. Alkaline phosphatase activity was corrected for transfection efficiency using the p-galactosidase activity as an internal standard (see, for example, Kliewer, S. A., et. al. Cell 1995, 83, 813-819. Rosiglitazone is used as a positive control in the hPPARγ assay. The positive control in the hPPAR-alpha and hPPAR-delta assays was 2-[4-(2-(3-(4-fluorophenyl)-1heptylureido)ethyl)-phenoxy]-2-methylpropionic acid, which can be prepared as described in Brown, Peter J., et. al. Synthesis (7), 778-782 (1997), or patent publication WO 9736579.
(§2) Compounds of Examples 1-41 were assayed to measure their biological activity with respect to their EC50 values and efficacy for modulating PPAR-alpha, PPAR-gamma, and PPAR-delta as set forth in Table 2.

PPARγ = molecular target: T2, PPARγ (Homo sapiens, UniProt P37231); assay: PPAR-gamma EC50, functional cell (transactivation) assay
T2 construct: expressed in transfected cells; host or cells: CV-1 cells
T2 sequence (P37231 238-503 limits assumed): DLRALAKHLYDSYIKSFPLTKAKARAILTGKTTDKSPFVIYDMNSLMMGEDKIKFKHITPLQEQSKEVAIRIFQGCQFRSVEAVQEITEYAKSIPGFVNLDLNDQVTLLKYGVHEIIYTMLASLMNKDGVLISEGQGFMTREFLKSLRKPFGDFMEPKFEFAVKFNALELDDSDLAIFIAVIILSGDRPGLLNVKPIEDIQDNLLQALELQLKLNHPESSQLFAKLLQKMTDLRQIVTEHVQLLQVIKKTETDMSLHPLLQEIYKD
Text: as §1, §2

PPARα = molecular target: T3, PPARα (Homo sapiens, UniProt Q07869); assay: PPAR-alpha EC50, functional cell (transactivation) assay
T3 construct: expressed in transfected cells; host or cells: CV-1 cells
T3 sequence (Q07869 239-466 limits assumed): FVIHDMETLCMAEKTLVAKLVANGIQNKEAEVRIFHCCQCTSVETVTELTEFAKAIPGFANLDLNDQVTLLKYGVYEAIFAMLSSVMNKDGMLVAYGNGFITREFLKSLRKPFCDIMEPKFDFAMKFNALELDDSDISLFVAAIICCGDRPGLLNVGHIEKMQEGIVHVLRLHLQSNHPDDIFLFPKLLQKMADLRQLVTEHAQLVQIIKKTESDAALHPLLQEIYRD
Text: as §1, §2

| EC50 (PPARδ) [µM] | EC50 (PPARγ) [µM] | EC50 (PPARα) [µM] | Compound |
| --- | --- | --- | --- |
| 1 to 100 | > 100 | > 100 | CC(C)(Oc1ccc(S(=O)(=O)N2CCN(c3ccc(F)cc3)CC2)cc1)C(=O)O |
| 1 to 100 | > 100 | 1 to 100 | Cc1ccc(N2CCN(S(=O)(=O)c3ccc(OC(C)(C)C(=O)O)cc3)CC2)c(C)c1 |
| 1 to 100 | > 100 | > 100 | CC(C)(Oc1ccc(S(=O)(=O)N2CCN(c3ccccc3)CC2)cc1)C(=O)O |
| 1 to 100 | > 100 | > 100 | CC(C)(Oc1ccc(S(=O)(=O)N2CCN(c3ccccc3F)CC2)cc1)C(=O)O |
| 1 to 100 | 1 to 100 | 1 to 100 | CCc1cnc(N2CCN(S(=O)(=O)c3ccc(OC(C)(C)C(=O)O)cc3)CC2)nc1 |
| 1 to 100 | 1 to 100 | 1 to 100 | CC(C)(Oc1ccc(S(=O)(=O)N2CCN(c3ccc(Cl)c(Cl)c3)CC2)cc1)C(=O)O |
| > 100 | > 100 | > 100 | CC(C)(Oc1ccc(S(=O)(=O)N2CCN(c3ccccn3)CC2)cc1)C(=O)O |
| 1 to 100 | > 100 | > 100 | Cc1cccc(N2CCN(S(=O)(=O)c3ccc(OC(C)(C)C(=O)O)cc3)CC2C)c1 (stereo not drawn) |
| 1 to 100 | 1 to 100 | > 100 | CC(C)(Oc1ccc(S(=O)(=O)N2CCN(c3cccc(C(F)(F)F)c3)CC2)cc1)C(=O)O |
| < 1 | 1 to 100 | 1 to 100 | Cc1cc(S(=O)(=O)N2CCN(c3ccc(Cl)c(Cl)c3)CC2)ccc1OC(C)(C)C(=O)O |
| < 1 | 1 to 100 | > 100 | Cc1cc(S(=O)(=O)N2CCN(c3ccc(Cl)cc3)CC2)ccc1OC(C)(C)C(=O)O |
| 1 to 100 | 1 to 100 | > 100 | Cc1ccc(N2CCN(S(=O)(=O)c3ccc(OC(C)(C)C(=O)O)c(C)c3)CC2)c(C)c1 |
| < 1 | 1 to 100 | > 100 | Cc1cccc(N2CCN(S(=O)(=O)c3ccc(OC(C)(C)C(=O)O)c(C)c3)CC2C)c1 (stereo not drawn) |
| 1 to 100 | > 100 | > 100 | Cc1ccc(N2CCN(S(=O)(=O)c3ccc(OC(C)(C)C(=O)O)c(C)c3)CC2C)cc1C (stereo not drawn) |
| 1 to 100 | > 100 | > 100 | Cc1cc(S(=O)(=O)N2CCN(c3cc(Cl)ccc3C)C(C)C2)ccc1OC(C)(C)C(=O)O (stereo not drawn) |
| 1 to 100 | > 100 | > 100 | Cc1cc(S(=O)(=O)N2CCN(CCc3ccccc3)CC2)ccc1OC(C)(C)C(=O)O |
| 1 to 100 | > 100 | > 100 | Cc1cc(S(=O)(=O)N2CCN(c3ccc(C#N)cc3)CC2)ccc1OC(C)(C)C(=O)O |
| 1 to 100 | 1 to 100 | > 100 | Cc1cc(S(=O)(=O)N2CCN(Cc3ccc(F)cc3)CC2)ccc1OC(C)(C)C(=O)O |
| 1 to 100 | 1 to 100 | > 100 | COc1ccc(N2CCN(S(=O)(=O)c3ccc(OC(C)(C)C(=O)O)c(C)c3)CC2)cc1 |
| < 1 | 1 to 100 | > 100 | Cc1cc(S(=O)(=O)N2CCN(c3cccc(Br)c3)CC2)ccc1OC(C)(C)C(=O)O |
| 1 to 100 | 1 to 100 | > 100 | Cc1cc(S(=O)(=O)N2CCN(c3ccc(C(C)(C)C)cc3)CC2)ccc1OC(C)(C)C(=O)O |

| EC50 (PPARδ) [µM] | EC50 (PPARγ) [µM] | EC50 (PPARα) [µM] | Compound |
| --- | --- | --- | --- |
| 1 to 100 | 1 to 100 | 1 to 100 | COc1ccc(N2CCN(S(=O)(=O)c3ccc(OC(C)(C)C(=O)O)c(C)c3)CC2)cc1OC |
| 1 to 100 | 1 to 100 | > 100 | Cc1cc(S(=O)(=O)N2CCN(c3ccc(C(F)(F)F)cc3[N+](=O)[O-])CC2)ccc1OC(C)(C)C(=O)O |
| 1 to 100 | 1 to 100 | > 100 | COc1ccccc1N1CCN(S(=O)(=O)c2ccc(OC(C)(C)C(=O)O)c(C)c2)CC1 |
| 1 to 100 | > 100 | > 100 | Cc1cc(S(=O)(=O)N2CCN(C3CCCCC3)CC2)ccc1OC(C)(C)C(=O)O |
| 1 to 100 | 1 to 100 | > 100 | Cc1ccc(C)c(N2CCN(S(=O)(=O)c3ccc(OC(C)(C)C(=O)O)c(C)c3)CC2)c1 |
| 1 to 100 | 1 to 100 | > 100 | Cc1cc(S(=O)(=O)N2CCN(CC3CCCCC3)CC2)ccc1OC(C)(C)C(=O)O |
| 1 to 100 | 1 to 100 | > 100 | Cc1cc(S(=O)(=O)N2CCN(c3ccccc3C#N)CC2)ccc1OC(C)(C)C(=O)O |
| 1 to 100 | 1 to 100 | > 100 | Cc1cc(S(=O)(=O)N2CCN(c3ccc([N+](=O)[O-])cc3)CC2)ccc1OC(C)(C)C(=O)O |
| 1 to 100 | > 100 | > 100 | Cc1cc(S(=O)(=O)N2CCN(C(=O)c3ccco3)CC2)ccc1OC(C)(C)C(=O)O |
| 1 to 100 | 1 to 100 | 1 to 100 | COc1cccc(N2CCN(S(=O)(=O)c3ccc(OC(C)(C)C(=O)O)c(C)c3)CC2)c1 |
| 1 to 100 | 1 to 100 | 1 to 100 | Cc1cc(S(=O)(=O)N2CCN(C(c3ccc(F)cc3)c3ccc(F)cc3)CC2)ccc1OC(C)(C)C(=O)O |
| 1 to 100 | 1 to 100 | > 100 | Cc1cc(S(=O)(=O)N2CCN(c3cccc(Cl)c3)CC2)ccc1OC(C)(C)C(=O)O |
| 1 to 100 | 1 to 100 | > 100 | Cc1cc(S(=O)(=O)N2CCN(c3ccccc3Cl)CC2)ccc1OC(C)(C)C(=O)O |
| < 1 | 1 to 100 | > 100 | Cc1cc(S(=O)(=O)N2CCN(c3ccccc3F)CC2)ccc1OC(C)(C)C(=O)O |
| 1 to 100 | 1 to 100 | 1 to 100 | CCOc1ccccc1N1CCN(S(=O)(=O)c2ccc(OC(C)(C)C(=O)O)c(C)c2)CC1 |
| 1 to 100 | 1 to 100 | > 100 | Cc1cc(S(=O)(=O)N2CCN(C/C=C/c3ccccc3)CC2)ccc1OC(C)(C)C(=O)O |
| < 1 | 1 to 100 | > 100 | Cc1cc(S(=O)(=O)N2CCN(c3ccc(F)cc3)CC2)ccc1OC(C)(C)C(=O)O |
| 1 to 100 | 1 to 100 | > 100 | Cc1cc(S(=O)(=O)N2CCN(c3ccccc3)CC2)ccc1OC(C)(C)C(=O)O |
| 1 to 100 | 1 to 100 | > 100 | Cc1cc(S(=O)(=O)N2CCN(C(c3ccccc3)c3ccccc3)CC2)ccc1OC(C)(C)C(=O)O |
| 1 to 100 | 1 to 100 | 1 to 100 | Cc1cc(S(=O)(=O)N2CCN(C(c3ccccc3)c3ccc(Cl)cc3)CC2)ccc1OC(C)(C)C(=O)O (stereo not drawn) [drawing 116] |
| 1 to 100 | 1 to 100 | 1 to 100 | Cc1cc(S(=O)(=O)N2CCN(C(c3ccccc3)c3ccc(Cl)cc3)CC2)ccc1OC(C)(C)C(=O)O (stereo not drawn) [drawing 127] |

Source: patent US20060258683A1, “Para-sulfonyl substituted phenyl compounds as modulators of ppars” (priority 2003, published 2006)
